Reference: ChEMBL document CHEMBL5331085 (Eur J Med Chem, 2023)
≈ marks a conversion by molar mass, not a printed value. Where “and” joins values, the source holds several entries; their conditions need not be identical. Equal values may be shown once. Calls of active or inactive are those of the source. The calls are words filed in the database; no cut-off is given here. Positions of bridges follow the written chain, without caps; N, C: chain ends. Non-standard residues stand in square brackets, D forms with d. Residues, ends and D or L forms follow the SMILES beside them. *: point of attachment. Ileψ(thiazoline)Cys = CC[C@H](C)[C@H](N)C1=N[C@H](C(=O)*)CS1; dOrn = NCCC[C@@H](N)C(=O)O

Columns and labels:
[1] = (§1) Hemolytic activity in sheep erythrocytes incubated for 1 hr by absorbance based analysis; assay type: toxicity, cell-based, Ovis aries, Erythrocyte; settings: sheep erythrocytes
[2] = tested on: Staphylococcus aureus; assay: Antimicrobial activity against methicillin-resistant Staphylococcus aureus incubated for 16 to 20 hrs by CLSI based broth dilution method; assay type: functional; settings: time 16-20 hrs
[3] = tested on: Staphylococcus aureus; assay: Antimicrobial activity against methicillin-resistant Staphylococcus aureus infected in Kunming female mouse assessed as reduction in bacterial load in skin administered at labeled position and measured after 24 hrs; assay type: functional, organism-based; settings: dose 5-10 mg/kg/day
[4] = tested on: Stenotrophomonas maltophilia; assay: Antimicrobial activity against Stenotrophomonas maltophilia ATCC 17808 incubated for 16 to 20 hrs by CLSI based broth dilution method; assay type: functional; settings: time 16-20 hrs
[5] = tested on: Escherichia coli; assay: Antimicrobial activity against Escherichia coli ATCC 25922 incubated for 16 to 20 hrs by CLSI based broth dilution method; assay type: functional; settings: time 16-20 hrs
[6] = tested on: Enterococcus faecium; assay: Antimicrobial activity against Enterococcus faecium ATCC 29212 incubated for 16 to 20 hrs by CLSI based broth dilution method; assay type: functional
[7] = tested on: Staphylococcus aureus; assay: Antimicrobial activity against Staphylococcus aureus ATCC 29213 incubated for 16 to 20 hrs by CLSI based broth dilution method; assay type: functional; settings: time 16-20 hrs
[8] = tested on: Erythrocyte; assay: as §1; assay type: toxicity, cell-based, Ovis aries; settings: erythrocyte, 1 h
[9] = tested on: Staphylococcus aureus; assay: Induction of drug resistance in Staphylococcus aureus ATCC 29213 at 0.1 times MIC measured after 20 passages; assay type: functional
[10] = tested on: Staphylococcus aureus; assay: Antimicrobial activity against Staphylococcus aureus; assay type: functional
[11] = tested on: Staphylococcus aureus; assay: Antibacterial activity against Staphylococcus aureus ATCC 29213 assessed as inhibition of bacterial growth at 0.5 ug/ml incubated for 16 to 18 hrs in presence of genomic DNA at 0.125 to 4 ug/ml by microplate reader analysis; assay type: functional, organism-based; settings: dose 0.5 µg/ml, time 16-18 hrs
[12] = Cytotoxicity against human BGC cells assessed as inhibition of cell growth incubated for 72 hrs by CCK-8 assay; assay type: toxicity, cell-based
[13] = Cytotoxicity against HUVEC cells assessed as inhibition of cell growth incubated for 72 hrs by CCK-8 assay; assay type: toxicity, cell-based; settings: human
[14] = Cytotoxicity against human WPMY-1 cells assessed as inhibition of cell growth incubated for 72 hrs by CCK-8 assay; assay type: toxicity, cell-based
[15] = Induction of drug resistance in Staphylococcus aureus ATCC 29213 assessed as test compound MIC at sub-MIC measured after 20 days (reference value: 1 ug/ml); assay type: functional; settings: ATCC 29213, 480 h, time 20 day
[16] = Stenotrophomonas maltophilia, ATCC 17808, read-out: MIC
[17] = Escherichia coli, ATCC 25922, read-out: MIC
[18] = Enterococcus faecium, ATCC 29212, time 16-20 hrs, read-out: MIC
[19] = Staphylococcus aureus, ATCC 29213, read-out: MIC

Molecule | HC50 at 1 h [1] [µg/mL] | MIC [4, 16] [µg/mL] | MIC [5, 17] [µg/mL] | MIC [6, 18] [µg/mL] | MIC [7, 19] [µg/mL] | also measured
CN[C@H](CC(C)C)C(=O)N[C@H]1C(=O)N[C@@H](CC(N)=O)C(=O)N[C@H]2C(=O)N[C@H]3C(=O)N[C@H](C(=O)N[C@H](C(=O)O)c4cc(O)cc(O)c4-c4cc3ccc4O)[C@H](O)c3ccc(c(Cl)c3)Oc3cc2cc(c3O[C@@H]2O[C@H](CO)[C@@H](O)[C@H](O)[C@H]2O[C@H]2C[C@](C)(N)[C@H](O)[C@H](C)O2)Oc2ccc(cc2Cl)[C@H]1O [VANCOMYCIN] | > 1280 | – | – | – | – | MIC90 [2]: 2 µg/mL (≈ 1.38 µM); Activity [3]: Dose-Dependent Effect
CO[C@H]1/C=C/O[C@@]2(C)Oc3c(C)c(O)c4c(O)c(c(/C=N/N5CCN(C)CC5)c(O)c4c3C2=O)NC(=O)/C(C)=C\C=C\[C@H](C)[C@H](O)[C@@H](C)[C@@H](O)[C@@H](C)[C@H](OC(C)=O)[C@@H]1C [RIFAMPIN] | – | – | – | – | – | MIC90 [2]: 128 µg/mL (≈ 156 µM)
CCCCCCCCCC[N+](C)(C)CCCOc1cccc(-c2cccc(OCCC[N+](C)(C)CCCCCCCCCC)c2)c1.[Br-].[Br-] | 19 | 2 | 2 | 0.5 | 1 | –
CCCCCCCCCC[N+](C)(C)CCCOc1ccc2ccccc2c1-c1c(OCCC[N+](C)(C)CCCCCCCCCC)ccc2ccccc12.[Br-].[Br-] | 228 | 16 | 16 | 16 | 16 | MIC [4]: 16 µg/mL; MIC [5]: 16 µg/mL; MIC ([6]; time 16-20 hrs): 16 µg/mL; MIC [7]: 16 µg/mL; HC50 [8]: 371 µg/mL
CCCCCCCC[N+](C)(C)CCCOc1ccc(-c2ccc(OCCC[N+](C)(C)CCCCCCCC)cc2)cc1.[Br-].[Br-] | 83 | 2 | 1 | 0.5 | 1 | –
C[C@H]1COc2c(N3CCN(C)CC3)c(F)cc3c(=O)c(C(=O)O)cn1c23 | – | – | – | – | – | Activity [9]: Active
CC[C@H](C)[C@H](N)C1=N[C@H](C(=O)N[C@@H](CC(C)C)C(=O)N[C@H](CCC(=O)O)C(=O)N[C@H](C(=O)N[C@H]2CCCCNC(=O)[C@H](CC(N)=O)NC(=O)[C@@H](CC(=O)O)NC(=O)[C@H](Cc3cnc[nH]3)NC(=O)[C@@H](Cc3ccccc3)NC(=O)[C@H]([C@@H](C)CC)NC(=O)[C@@H](CCCN)NC2=O)[C@@H](C)CC)CS1 [BACITRACIN] ({Ileψ(thiazoline)Cys}-L[dE]IK[dOrn]I[dF]H[dD]N; lactam 4-C) | – | – | > 128 | 16 (≈ 11.2 µM) | 16 (≈ 11.2 µM) | –
COc1cccc(OC)c1C(=O)N[C@@H]1C(=O)N2[C@@H]1SC(C)(C)[C@@H]2C(=O)O | – | – | – | – | – | Activity [9]: Active
C[C@H]1c2cccc(O)c2C(=O)C2=C(O)[C@]3(O)C(=O)C(C(N)=O)=C(O)[C@@H](N(C)C)[C@@H]3[C@@H](O)[C@@H]21.O [DOXYCYCLINE] | – | – | – | – | – | MIC90 [2]: 8 µg/mL
CCCCCCN(CCCOc1ccc(-c2ccc(OCCCN(CCCCCC)C(=O)[C@@H](N)CCCCN)cc2)cc1)C(=O)[C@@H](N)CCCCN.Cl.Cl.Cl.Cl | – | – | – | – | – | MIC [10]: 1 µg/mL
C[C@@H](O)[C@H]1C(=O)N2C(C(=O)O)=C(S[C@@H]3CN[C@H](C(=O)N(C)C)C3)[C@H](C)[C@H]12 [MEROPENEM] | > 1280 | – | 0.063 (≈ 0.164 µM) | – | – | –
CC1(C)S[C@@H]2[C@H](NC(=O)[C@H](N)c3ccccc3)C(=O)N2[C@H]1C(=O)O | – | – | – | – | – | Activity [9]: Active
CCCCCCCC[N+](C)(C)CCCOc1ccc2ccccc2c1-c1c(OCCC[N+](C)(C)CCCCCCCC)ccc2ccccc12.[Br-].[Br-] | 28 | 2 | 2 | 2 | 2 | MIC [4]: 2 µg/mL; MIC [5]: 2 µg/mL; MIC ([6]; time 16-20 hrs): 2 µg/mL; MIC [7]: 2 µg/mL; HC50 [8]: 20 µg/mL
CCCCCCCC[N+](C)(C)CCCOc1cccc(-c2cccc(OCCC[N+](C)(C)CCCCCCCC)c2)c1.[Br-].[Br-] | 145 | 2 | 1 | 0.5 | 2 | –
CCCCCC[N+](C)(C)CCCOc1ccc(-c2ccc(OCCC[N+](C)(C)CCCCCC)cc2)cc1.[Br-].[Br-] | 487 | 1 | 2 | 1 | 2 | –
GENTAMICIN | – | – | – | – | – | MIC90 [2]: 2 µg/mL
CCCCCCCCCC[N+](C)(C)CCCOc1ccccc1-c1ccccc1OCCC[N+](C)(C)CCCCCCCCCC.[Br-].[Br-] | 10 | 4 | 4 | 1 | 2 | –
COLISTIN | – | – | – | – | – | Activity [11]: Active
O=C(O)c1cn(C2CC2)c2cc(N3CCNCC3)c(F)cc2c1=O | – | – | – | – | – | Activity [9]: Active
CCCCCCCCCCCC[N+](C)(C)CCCOc1ccccc1-c1ccccc1OCCC[N+](C)(C)CCCCCCCCCCCC.[Br-].[Br-] | 12 | 32 | 32 | 4 | 16 | –
CCCCCCCC[N+](C)(C)CCCOc1ccccc1-c1ccccc1OCCC[N+](C)(C)CCCCCCCC.[Br-].[Br-] | 109 | 2 | 1 | 0.5 | 1 | –
CCCCCCN(CCCOc1ccccc1-c1ccccc1OCCCN(CCCCCC)C(=O)[C@@H](N)CCCCN)C(=O)[C@@H](N)CCCCN.Cl.Cl.Cl.Cl | – | – | – | – | – | MIC [10]: 0.5 µg/mL
CCCCCCCCCC[N+](C)(C)CCCOc1ccc(-c2ccc(OCCC[N+](C)(C)CCCCCCCCCC)cc2)cc1.[Br-].[Br-] | 18 | 2 | 2 | 0.5 | 1 | –
CCCCCC[N+](C)(C)CCCOc1ccccc1-c1ccccc1OCCC[N+](C)(C)CCCCCC.[Br-].[Br-] | > 1280 | 128 | 128 | 16 | 2 | –
C=C[C@]1(C)C[C@@H](OC(=O)CS[C@@H]2C[C@H]3CC[C@@H](C2)N3C)[C@]2(C)[C@H](C)CC[C@]3(CCC(=O)[C@H]32)[C@@H](C)[C@@H]1O [RETAPAMULIN] | – | – | – | – | – | IC50 at 72 h [12]: 16 µg/mL (≈ 30.9 µM); IC50 at 72 h [13]: 25.5 µg/mL (≈ 49.2 µM); IC50 at 72 h [14]: 13.9 µg/mL (≈ 26.8 µM)
CC[C@H]1OC(=O)[C@H](C)[C@@H](O[C@H]2C[C@@](C)(OC)[C@@H](O)[C@H](C)O2)[C@H](C)[C@@H](O[C@@H]2O[C@H](C)C[C@H](N(C)C)[C@H]2O)[C@](C)(O)C[C@@H](C)C(=O)[C@H](C)[C@@H](O)[C@]1(C)O [ERYTHROMYCIN] | – | – | – | – | – | MIC90 [2]: 128 µg/mL (≈ 174 µM)
CCCCCC[N+](C)(C)CCCOc1ccc2ccccc2c1-c1c(OCCC[N+](C)(C)CCCCCC)ccc2ccccc12.[Br-].[Br-] | – | 8 | 8 | 4 | 8 | MIC [4]: 8 µg/mL; MIC [5]: 8 µg/mL; MIC ([6]; time 16-20 hrs): 8 µg/mL; MIC [7]: 8 µg/mL; HC50 [8]: 405 µg/mL and 868 µg/mL
CCn1cc(C(=O)O)c(=O)c2cc(F)c(N3CCNCC3)cc21 [NORFLOXACIN] | – | – | – | – | – | MIC [15]: 64 µg/mL
